What was measured:
isolated rat aorta = experiment: Calcium antagonism: contractile response of isolated rat aorta to calcium chloride; format: cell-based; settings: test compound 5 nM
Procedure: An isolated rat aorta was suspended in a calcium-free and high potassium Krebs-Henseleit solution maintained at a temperature of 37° C. The contractile response of the aorta to calcium chloride in concentrations ranging from 10^-5 to 10^-2 M was recorded by means of an isometric transducer. The dose-response curve of the aorta was obtained before and after addition of a test compound at a concentration of 5 nM. Addition of the test compound shifted the dose-response curve to the right, the magnitude of the shift depending upon the potency of the Ca^++ -blocking activity.

[1] = test system: spontaneously hypertensive rats of the SHR strain; experiment: Antihypertensive activity in conscious spontaneously hypertensive rats (blood pressure and heart rate); settings: po; for 12 Hour Area (integrated value of the area above the graph of blood pressure change against time): 12 hours after administration
Procedure: The test animals were spontaneously hypertensive rats of the SHR strain, each aged about 15 weeks. The antihypertensive activities of the test compounds were determined in these rats as follows.
Each animal was anaesthetized with sodium pentobarbital (50 mg/kg, intraperitoneally) and a polyethylene cannula was inserted into the abdominal aorta by the method of Weeks and Jones [J. R. Weeks and J. A. Jones, Proc. Soc. Exptl. […] The other end of the cannula left the animal's body at, and was fixed to, the neck. About 1 week after this surgery, when the animal had completely recovered from surgical stress, the free end of the aortic cannula was connected to a sphygmomanmeter to measure blood pressure and heart rate of the animal directly in the conscious, aparalytic and unrestrained state.
At this time, a test compound suspended in a 0.3% w/v aqueous carboxymethylcellulose solution was administered orally in the dose shown in the following Table 8.
Tmax : the time in hours after administration of the compound under test before the maximum change in blood pressure was recorded;
To 0.5 max : the time in hours after administration of the compound under test which is required for the blood pressure to return to one half of its maximum value;

[2] = SHR, compared with nifedipine and nicardipine

CC1=C(C(=O)OC(C)C)C(c2cccc([N+](=O)[O-])c2)C(C(=O)OC2CN(C(c3ccccc3)c3ccccc3)C2)=C(N)N1 (stereo not drawn) [Compound 1-11, 3-(1-Benzhydryl-3-azetidinyl) 5-isopropyl 2-amino-6-methyl-4-(3-nitrophenyl)-1,4-dihydropyridine-3,5-dicarboxylate]
duration of activity (calcium antagonism) (isolated rat aorta; isolated rat aorta): excellent duration of activity | rightwards shift of the calcium chloride dose-response curve (Ca++-blocking activity) (isolated rat aorta; calcium-free high potassium Krebs-Henseleit solution, 37° C): comparable with that of nifedipine | T0.5 max (time after administration for the blood pressure to return to one half of its maximum value) ([1]; 1 mg/kg, SHR): 10.4 h | Tmax (time after administration before the maximum change in blood pressure) ([1]; 1 mg/kg, SHR): 6.0 h | 12 Hour Area (integrated value of the area above the graph of blood pressure change against time) ([1]; 1 mg/kg, SHR): -184 | Tmax (time after administration before the maximum change in blood pressure) ([1]; 3 mg/kg, SHR): 5.0 h | 12 Hour Area (integrated value of the area above the graph of blood pressure change against time) ([1]; 3 mg/kg, SHR): -334 | duration of the antihypertensive activity [1, 2]: much longer than that produced by nifedipine and nicardipine | time of onset of activity / speed of lowering blood pressure [1, 2]: lowered blood pressure much more slowly than did nifedipine or nicardipine | heart rate ([1]; rat, in vivo): (but not Compound 1-11) increased heart rate

CC1=C(C(=O)OC(C)C)C(c2cccc(Cl)c2Cl)C(C(=O)OC2CN(C(c3ccccc3)c3ccccc3)C2)=C(N)N1 (stereo not drawn) [Compound 1-59, 3-(1-Benzhydryl-3-azetidinyl) 5-isopropyl 2-amino-4-(2,3-dichlorophenyl)-6-methyl-1,4-dihydropyridine-3,5-dicarboxylate]
T0.5 max (time after administration for the blood pressure to return to one half of its maximum value) ([1]; 1 mg/kg, SHR): 12.0 h | Tmax (time after administration before the maximum change in blood pressure) ([1]; 1 mg/kg, SHR): 6.0 h | 12 Hour Area (integrated value of the area above the graph of blood pressure change against time) ([1]; 1 mg/kg, SHR): -203

CC1=C(C(=O)OC(C)C)C(c2cccc([N+](=O)[O-])c2)C(C(=O)OC2CN(C(c3ccc(F)cc3)c3ccc(F)cc3)C2)=C(N)N1 (stereo not drawn) [Compound 1-68, 3-[1-(4,4'-Difluorobenzhydryl)-3-azetidinyl]5-isopropyl 2-amino-6-methyl-4-(3-nitrophenyl)-1,4-dihydropyridine-3,5-dicarboxylate]
T0.5 max (time after administration for the blood pressure to return to one half of its maximum value) ([1]; 1 mg/kg, SHR): 11.8 h | Tmax (time after administration before the maximum change in blood pressure) ([1]; 1 mg/kg, SHR): 7.0 h | 12 Hour Area (integrated value of the area above the graph of blood pressure change against time) ([1]; 1 mg/kg, SHR): -218

CC1=C(C(=O)OC(C)C)C(c2cccc([N+](=O)[O-])c2)C(C(=O)OC2CCN(C(c3ccccc3)c3ccccc3)C2)=C(N)N1 (stereo not drawn) [Compound 2-8, 3-(1-Benzhydryl-3-pyrrolidinyl) 5-isopropyl 2-amino-6-methyl-4-(3-nitrophenyl)-1,4-dihydropyridine-3,5-dicarboxylate]
T0.5 max (time after administration for the blood pressure to return to one half of its maximum value) ([1]; 1 mg/kg, SHR): 11.2 h | Tmax (time after administration before the maximum change in blood pressure) ([1]; 1 mg/kg, SHR): 6.0 h | 12 Hour Area (integrated value of the area above the graph of blood pressure change against time) ([1]; 1 mg/kg, SHR): -172

CC1=C(C(=O)OC(C)C)C(c2cccc([N+](=O)[O-])c2)C(C(=O)OC2CCCN(C(c3ccccc3)c3ccccc3)C2)=C(N)N1 (stereo not drawn) [Compound 3-8, 3-(1-Benzhydryl-3-piperidyl) 5-isopropyl 2-amino-6-methyl-4-(3-nitrophenyl)-1,4-dihydropyridine-3,5-dicarboxylate]
T0.5 max (time after administration for the blood pressure to return to one half of its maximum value) ([1]; 1 mg/kg, SHR): 11.4 h | Tmax (time after administration before the maximum change in blood pressure) ([1]; 1 mg/kg, SHR): 7.0 h | 12 Hour Area (integrated value of the area above the graph of blood pressure change against time) ([1]; 1 mg/kg, SHR): -141

COC(=O)C1=C(C)NC(C)=C(C(=O)OCCN(C)Cc2ccccc2)C1c1cccc([N+](=O)[O-])c1 (stereo not drawn) [nicardipine, reference compound]
T0.5 max (time after administration for the blood pressure to return to one half of its maximum value) ([1]; 3 mg/kg, SHR): 5.3 h | Tmax (time after administration before the maximum change in blood pressure) ([1]; 3 mg/kg, SHR): 0.5 h | 12 Hour Area (integrated value of the area above the graph of blood pressure change against time) ([1]; 3 mg/kg, SHR): -175

COC(=O)C1=C(C)NC(C)=C(C(=O)OC)C1c1ccccc1[N+](=O)[O-] [nifedipine, reference compound]
12 Hour Area (integrated value of the area above the graph of blood pressure change against time) ([1]; 3 mg/kg, SHR): -237 | heart rate ([1]; SHR): increased heart rate

From patent US4772596A, “Dihydropyridine derivatives, their preparation and their use” (Sankyo Company Limited, priority 1986, dated 1988)
